Reference: ChEMBL document CHEMBL1127211, “Biselectrostatic interaction with DNA as potential anti-turmor agents: novel 2,11-diamino-5,8-dithiaundecane derivatives” (1993)
≈ marks a conversion by molar mass, not a printed value.

What was measured:
Format in all cases: functional
Settings in all cases: Homo sapiens, read-out: LD50 (the source's name)
HEp-2 = experiment: Tested for its in vitro cytotoxicity against HEP-2 cells
COLO 205 = experiment: Tested for its in vitro cytotoxicity against COLO-205 cells
[1] = Tested for its in vitro cytotoxicity against KB cells
HeLa = experiment: Tested for its in vitro cytotoxicity against Hela cells

Structure (SMILES) | CC50 (HEp-2) [µg/mL] | CC50 (COLO 205) [µg/mL] | CC50 [1] [µg/mL] | CC50 (HeLa) [µg/mL]
NCCCSCC(COc1ccc(-c2ccccc2)cc1)SCCCN (stereo unspecified) | 1.45 (≈ 3.71 µM) | 1.05 (≈ 2.69 µM) | 0.92 (≈ 2.36 µM) | 0.68 (≈ 1.74 µM)
NCCCSCC(COc1cccc(-c2ccccc2)c1)SCCCN (stereo unspecified) | 1.36 (≈ 3.48 µM) | 1.41 (≈ 3.61 µM) | 1.55 (≈ 3.97 µM) | 1.2 (≈ 3.07 µM)
NCCCSCC(COc1ccc(NC(=O)c2cc(-c3ccccc3)nc3ccccc23)cc1)SCCCN (stereo unspecified) | 1.92 (≈ 3.42 µM) | 5.2 (≈ 9.27 µM) | – | 6.18 (≈ 11 µM)
